Experimental findings from publication PMC3691235, “Discovery of a Novel Dual Fungal CYP51/Human 5-Lipoxygenase Inhibitor: Implications for Anti-Fungal Therapy” (PLoS ONE, 2013) are described below.

Assay [1] concerns LTB4 synthesis in whole human blood. Put plainly: Human blood LTB4 inhibition assay. In kind it is cell-based. Conditions: for inhibition at 10 µM: Homo sapiens, compounds at 10 µM, calcium ionophore stimulated, ELISA, error in parentheses. On the procedure:
Whole human blood was obtained from healthy volunteers from within the Student Health Center. These studies were approved by the UCSC Institutional Review Board (IRB) and informed consent was obtained from all donors before blood draw. The whole blood was dispensed in 150 µL samples followed by addition of inhibitor or control (vehicle, DMSO), and incubated for 15 min at 37°C. The mixture was then stimulated by introduction of the calcium ionophore, […], (freshly diluted from a 50 mM DMSO stock to 1.5 mM in Hanks balanced salt solution), and incubated for 30 min at 37°C. Samples were then centrifuged at 1,500 rpm (300 g) for 10 min at 4°C and the supernatant diluted between 20 and 50-fold (batch dependent) for LTB4 detection, using an ELISA detection kit (Cayman Chemicals Inc.).
Background: In an ELISA, binding on a coated surface is turned into a signal by an enzyme label.

The target of assay [2] is T1, human platelet 12-lipoxygenase (12-LOX) (Homo sapiens, UniProt P18054).
T1 construct: His6 (N); made in house
T1 sequence (P18054 1-663): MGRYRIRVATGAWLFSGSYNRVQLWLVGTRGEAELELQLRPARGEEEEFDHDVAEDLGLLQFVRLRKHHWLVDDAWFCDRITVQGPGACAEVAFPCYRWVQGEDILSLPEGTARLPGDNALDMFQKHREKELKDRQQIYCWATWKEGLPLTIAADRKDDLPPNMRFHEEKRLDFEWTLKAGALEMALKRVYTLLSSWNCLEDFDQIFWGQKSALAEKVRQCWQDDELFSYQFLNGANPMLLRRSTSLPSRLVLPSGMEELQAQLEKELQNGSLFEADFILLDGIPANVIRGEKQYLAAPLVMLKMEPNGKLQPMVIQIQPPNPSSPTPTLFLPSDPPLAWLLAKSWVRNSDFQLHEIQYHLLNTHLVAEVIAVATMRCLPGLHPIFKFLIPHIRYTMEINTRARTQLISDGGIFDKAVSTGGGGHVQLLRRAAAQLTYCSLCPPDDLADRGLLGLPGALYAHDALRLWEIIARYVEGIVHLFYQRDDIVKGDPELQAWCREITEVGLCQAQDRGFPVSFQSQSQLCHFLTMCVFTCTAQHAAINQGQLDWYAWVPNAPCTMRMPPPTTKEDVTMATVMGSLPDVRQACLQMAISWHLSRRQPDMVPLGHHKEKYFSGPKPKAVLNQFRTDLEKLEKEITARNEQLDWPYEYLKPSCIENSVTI
The assay is described as follows: Lipoxygenase UV-based inhibitor assay, 12-LOX. In kind it is biochemical. The settings on record: 10 µM AA, pH 8.0. On the procedure:
(§1) Human leukocyte 5-lipoxygenase was expressed as a non-tagged protein and used as a crude ammonium sulfate protein fraction, as published previously.
(§2) Inhibitor potencies were evaluated through use of the standard UV-based inhibitor assay. The initial rates were determined by following the formation of the conjugated diene product at 234 nm (ε = 25,000 M^−1 cm^−1) with a Perkin-Elmer Lambda 40 UV/Vis spectrophotometer at one substrate concentration and varying inhibitor concentrations. All reactions were 2 mL in volume and constantly stirred using a magnetic stir bar at room temperature (23°C), with the enzyme specific buffer conditions outlined in Table 1. The substrate used for the various isozymes was arachidonic acid (AA) for 5-LOX, 12-LOX, and 15-LOX-2 and linoleic acid (LA) for 15-LOX-1, where concentrations were quantitatively determined by allowing the enzymatic reaction to go to completion. IC50 values were obtained by determining the initial rate at various inhibitor concentrations and plotting them against inhibitor concentration, followed by a hyperbolic saturation curve fit. The data used for the saturation curves were performed in duplicate or triplicate, depending on the quality of the data. […] Inhibitors were stored at −20°C in DMSO. […] The solvent isotope effect of the inhibitor IC50 was investigated utilizing the same conditions and methods as stated above. The pH of the buffered D2O was determined as reported previously.

The target of assay [3] is T2, Human reticulocyte 15-lipoxygenase-1 (15-LOX-1) (Homo sapiens, UniProt P16050).
T2 construct: His6 (N); made in house
T2 sequence (P16050 1-662): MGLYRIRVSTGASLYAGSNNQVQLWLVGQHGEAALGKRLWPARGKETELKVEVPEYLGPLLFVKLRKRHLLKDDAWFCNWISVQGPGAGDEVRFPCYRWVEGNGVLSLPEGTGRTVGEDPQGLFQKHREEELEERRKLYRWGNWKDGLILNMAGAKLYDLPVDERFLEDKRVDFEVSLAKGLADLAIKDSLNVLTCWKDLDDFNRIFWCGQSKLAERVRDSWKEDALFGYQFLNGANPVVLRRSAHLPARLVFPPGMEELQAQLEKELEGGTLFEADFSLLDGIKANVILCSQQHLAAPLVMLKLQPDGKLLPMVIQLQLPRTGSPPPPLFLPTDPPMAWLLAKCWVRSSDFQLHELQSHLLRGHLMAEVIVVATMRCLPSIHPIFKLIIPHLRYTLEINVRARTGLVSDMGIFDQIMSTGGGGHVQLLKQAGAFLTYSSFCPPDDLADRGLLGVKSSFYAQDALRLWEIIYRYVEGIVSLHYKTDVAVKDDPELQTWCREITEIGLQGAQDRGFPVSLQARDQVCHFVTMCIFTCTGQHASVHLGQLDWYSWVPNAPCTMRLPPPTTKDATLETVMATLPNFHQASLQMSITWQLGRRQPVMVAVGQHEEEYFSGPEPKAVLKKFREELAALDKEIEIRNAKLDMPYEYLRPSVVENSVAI
Put plainly: Lipoxygenase UV-based inhibitor assay, 15-LOX-1. The format is biochemical. Conditions: 10 µM LA, pH 7.5. On the procedure:
as §1, §2

As to `CC(C)(C)OC(=O)N1CCN(c2ccc(NCc3ccc(-c4ccc(C#N)cc4)o3)cc2)CC1` [Compound 1], in assay [1], the inhibition at 10 µM is approximately 50%. Besides, the IC50 in assay [2] and in assay [3] was more than 150 µM each time.
With `CC(=O)N1CCN(c2ccc(NCc3ccc(-c4cccc(Cl)c4)o3)cc2)CC1` [Compound 13], in assay [1], the inhibition at 10 µM is approximately 50%. Also, the IC50 in assay [2] and in assay [3] was more than 50 µM in each case.
As for `N#Cc1ccc(-c2ccc(CNc3ccc(N4CCCCC4)cc3)o2)cc1` [Compound 14], the half-maximal inhibitory concentration (IC50) is more than 150 µM in assay [2] and more than 25 µM in assay [3].
As to `CC(=O)N1CCN(c2ccc(NCC3COC(Cn4ccnc4)(c4ccc(Cl)cc4Cl)O3)cc2)CC1` (stereo not drawn) [ketaminazole (16), ketaminazole], the inhibition at 10 µM in assay [1] came out at 45%. In assay [1] (whole human blood), the “greater potency than ketoconazole in whole blood” value came out at 2 fold. Also, the IC50 in assay [2] and in assay [3] was more than 150 µM throughout.
For `Cc1cc(C2CCCCC2)n(O)c(=O)c1` [ciclopirox, reference compound], the inhibition at 10 µM in assay [1] was 34%. Further, the IC50 in assay [2] and in assay [3] was more than 100 µM in each case.
For the molecule `CC(=O)N1CCN(c2ccc(OCC3COC(Cn4ccnc4)(c4ccc(Cl)cc4Cl)O3)cc2)CC1` (stereo not drawn) [ketoconazole, reference compound], the inhibition at 10 µM in assay [1] is 25%. In addition, the IC50 in assay [2] was more than 150 µM; in assay [3], more than 50 µM.
The like results for `CC[C@](O)(c1nnc(NCc2ccc3c(-c4ccc(F)cc4)cc(=O)oc3c2)o1)C(F)(F)F` [setileuton, reference compound] were, in that order, 100%, more than 150 µM and more than 150 µM.

By inhibition is commonly meant the percentage by which the read-out fell short of the control. The term IC50 denotes the midpoint of a concentration-inhibition curve. Low values mean greater potency in that assay, high ones weaker potency in that assay.
